Experiments:
[1] = Bioabsorption testing: leuprolide levels after inhalation of solution aerosol (radioimmunoassay); conditions: aerosol compared with comparable intravenous dose
Procedure: Healthy male beagle dogs (9-18 months old) were provided with free access to food during entire study. There were three dogs of each sex in each treatment group. Body weight, food consumption and other pertinent clinical signs were monitored at a regular basis during the study. […] Drug administration was carried out through 2 weeks. Leuprolide plasma concentrations was determined during day 1 of the study in order to evaluate bioabsorption of leuprolide from the aerosol. Blood samples of approximately 2-3 ml were obtained from the jugular vein and allowed to clot. After centrifugation, the serum fraction was removed and assayed for leuprolide using a radioimmunoassay technique. Relative absorption of leuprolide via the inhalation route of administration was estimated using mean historical data from representative intravenously administered formulations.

[2] = no counterion
[3] = ionizable site of leuprolide; cited from earlier work

With `CCNC(=O)[C@@H]1CCCN1C(=O)[C@H](CCCNC(=N)N)NC(=O)[C@H](CC(C)C)NC(=O)[C@@H](CC(C)C)NC(=O)[C@H](Cc1ccc(O)cc1)NC(=O)[C@H](CO)NC(=O)[C@H](Cc1c[nH]c2ccccc12)NC(=O)[C@H](Cc1c[nH]cn1)NC(=O)[C@@H]1CCC(=O)N1` [leuprolide, 5-Oxo-L-prolyl-L-histidyl-L-tryptophanyl-L-seryl-L-tyrosyl-D-leucyl-L-leucyl-L-arginyl-L-prolylethylamide acetate] the plasma peak concentration [1] was “approximately equals that of a comparable dose administered intravenously”, the solubility of leuprolide ([2]; mixtures of ethyl alcohol and fluorocarbons) was about 3000 µg/mL and the “equilibrium solubility of leuprolide” value ([2]; mixtures of fluorocarbons, ethyl alcohol and water) was about 5000 µg/mL. For the same compound, the “pKa, guanidine nitrogen of arginine” value [3] was “approximately 13.0”, the “pKa, imidazolyl nitrogen of histidine” value [3] was “approximately 6.0” and the “pKa, phenolic hydroxyl of tyrosine” value [3] was “approximately 10.0”.

Source: patent publication US4851211A, “LHRH analog formulations” (Abbott Laboratories, priority 1986, dated 1989)
